{"source": "paper PMC7395068", "about": "“The evolution of strategies to minimise the risk of human drug-induced liver injury (DILI) in drug discovery and development” (Archives of Toxicology, 2020)", "key": {"[1]": {"conditions": "human, in vivo; cited from earlier work"}, "[2]": {"tested_on": "primary human hepatocytes, NIH3T3 fibroblasts, BSEP, CYP3A4", "conditions": "cited from earlier work"}, "[3]": {"tested_on": "PHH spheroids", "conditions": "cited from earlier work"}, "[4]": {"tested_on": "HepG2 cells", "conditions": "cited from earlier work"}, "[5]": {"tested_on": "rBsep", "conditions": "cited from earlier work"}, "[6]": {"tested_on": "THLE or HepG2 cells, isolated mitochondria, BSEP", "conditions": "cited from earlier work"}, "[7]": {"tested_on": "HepG2 C3A spheroid, BSEP, Glu/Gal in HepG2 cells, bioactivation", "conditions": "cited from earlier work"}, "[8]": {"experiment": "Plasma free fraction (fu) and unbound Cmax (Cmax,u)", "type": "in vitro ADME, human", "conditions": "human", "description": "The prediction of DILI severity was evaluated further using the 3D combined HCI assays using plasma-free fraction. The majority of fu values were obtained from literature, when unavailable in-house prediction was utilised. Unbound plasma Cmax concentrations (Cmax,u) were derived by multiplying total plasma Cmax with the corresponding free fraction (fu) for each compound."}, "[9]": {"tested_on": "HepG2 cells, primary human hepatocytes", "conditions": "cited from earlier work"}, "[10]": {"tested_on": "HepaRG spheroids", "experiment": "Combined HCI (HCS) and cellular ATP 3D assay in HepaRG spheroids", "conditions": "Homo sapiens, HepaRG"}, "[11]": {"conditions": "in vivo; cited from earlier work"}, "[12]": {"conditions": "in vivo; cited from earlier work", "remark": "listed apart in the source"}, "[13]": {"tested_on": "human hepatocytes", "conditions": "cited from earlier work"}, "[14]": {"tested_on": "HepaRG spheroids"}, "[15]": {"tested_on": "Upcyte human hepatocytes", "conditions": "cited from earlier work"}, "[16]": {"tested_on": "hLiMTs"}, "[17]": {"tested_on": "hLiMTs", "experiment": "Combined HCI (HCS) and cellular ATP 3D assay in hLiMTs", "conditions": "Homo sapiens"}, "[18]": {"tested_on": "THLE-Null and THLE-3A4 cells", "conditions": "cited from earlier work"}, "[19]": {"tested_on": "PHH", "conditions": "cited from earlier work"}}, "note": "Where two headings read alike, the source gives them in different places."}
{"compound": "Nc1c2c(nc3ccccc13)CCCC2", "note": "[tacrine, reference compound]", "values": [{"measurement": "Cmax", "setting": "[1]", "value": 80, "unit": "nM"}, {"measurement": "Cellular toxicity (3T3 cells)", "setting": "[2]", "value": "-VE"}, {"measurement": "Combined Assay", "setting": "[2]", "value": "+VE"}, {"measurement": "DILI in vitro assay prediction, Schadt (2015)", "setting": "[2]", "value": "+VE"}, {"measurement": "GSH adduct HML", "setting": "[2]", "value": "+VE"}, {"measurement": "Hepatocyte cellular toxicity", "setting": "[2]", "value": "-VE"}, {"measurement": "MitoTox 3T3", "setting": "[2]", "value": "-VE"}, {"measurement": "TDI CYP3A4", "setting": "[2]", "value": "-VE"}, {"measurement": "hBSEP inhibition", "setting": "[2]", "value": "-VE"}, {"measurement": "DILI in vitro assay prediction, Vorrink (2018)", "setting": "[3]", "value": "-VE"}, {"measurement": "Structural based (HCI)", "setting": "[4]", "value": "-VE"}, {"measurement": "Inhibition of rBsep cutoff<3", "setting": "[5]; In vitro Assay, ref Dawson 2012", "value": "-VE"}, {"measurement": "Inhibition of rBsep cutoff<1& cmax u>.2", "setting": "[5]", "value": "-VE"}, {"measurement": "Ro2 Hybrid HRM Score", "setting": "[6]", "value": "+VE"}, {"measurement": "Rule of Two hybrid HRM Score ≥8, Aleo (2019)", "setting": "[6]", "value": "-VE"}, {"measurement": "Bayesian Machine Learning", "setting": "[7]", "value": "+VE"}, {"measurement": "Bayesian Machine Learning DILI prediction, Williams (2019)", "setting": "[7]", "value": "+VE"}, {"measurement": "Human plasma Cmax,u", "setting": "[8]", "value": 36, "unit": "nM"}, {"measurement": "Cluster 1-6 +VE Assay", "setting": "[9]", "value": "+VE"}, {"measurement": "AC50", "setting": "[10]; read-out: ATP endpoint AC50", "value": 51.8, "unit": "µM"}, {"measurement": "minimal effective concentration", "setting": "[10]; read-out: ATP endpoint MEC", "value": 45.3, "unit": "µM"}, {"measurement": "AC50", "setting": "[10]; read-out: HCS endpoint AC50", "value": 65.6, "unit": "µM"}, {"measurement": "minimal effective concentration", "setting": "[10]; read-out: HCS endpoint MEC", "value": 48.7, "unit": "µM"}, {"measurement": "DILI Score (FDA) (1-8)", "setting": "[11]", "value": 7}, {"measurement": "Assigned DILI category", "setting": "[12]", "value": 2}, {"measurement": "DILI in vitro assay prediction, Xu (2008)", "setting": "[13]", "value": "-VE"}, {"measurement": "Structural based (HCI)", "setting": "[13]", "value": "-VE"}, {"measurement": "HepaRG <10 uM All", "setting": "[14]", "value": "-ve"}, {"measurement": "HepaRG <100x Avg Cmaxu ATP", "setting": "[14]; human", "value": "-ve"}, {"measurement": "HepaRG <100x Avg Cmaxu All", "setting": "[14]; human", "value": "-ve"}, {"measurement": "HepaRG <100x Avg Cmaxu HCS", "setting": "[14]; human", "value": "-ve"}, {"measurement": "HepaRG Cmax max All", "setting": "[14]; human", "value": "-ve"}, {"measurement": "HepaRG Cmax min All", "setting": "[14]; human", "value": "-ve"}, {"measurement": "Upcytes multi donor assay 14day data", "setting": "[15]", "value": "+VE"}, {"measurement": "hLiMTs <10 uM All", "setting": "[16]", "value": "-ve"}, {"measurement": "hLiMTs <100x Avg Cmaxu ATP", "setting": "[16]; human", "value": "-ve"}, {"measurement": "hLiMTs <100x Avg Cmaxu All", "setting": "[16]; human", "value": "-ve"}, {"measurement": "hLiMTs <100x Avg Cmaxu HCS", "setting": "[16]; human", "value": "-ve"}, {"measurement": "hLiMTs Cmax max All", "setting": "[16]; human", "value": "-ve"}, {"measurement": "hLiMTs Cmax min All", "setting": "[16]; human", "value": "-ve"}, {"measurement": "AC50", "setting": "[17]; read-out: ATP endpoint AC50", "value": 41.8, "unit": "µM"}, {"measurement": "minimal effective concentration", "setting": "[17]; read-out: ATP endpoint MEC", "value": 44.7, "unit": "µM"}, {"measurement": "AC50", "setting": "[17]; read-out: HCS endpoint AC50", "value": 52.4, "unit": "µM"}, {"measurement": "minimal effective concentration", "setting": "[17]; read-out: HCS endpoint MEC", "value": 38.5, "unit": "µM"}, {"measurement": "THLE-Null", "setting": "[18]", "value": "-VE"}, {"measurement": "PHH ATP <100uM", "setting": "[19]", "value": "-VE"}, {"measurement": "PHH/100uM, Proctor (2017)", "setting": "[19]", "value": "-VE"}]}
